Test results reported in patent US7803821B2, “Fungicide N-cycloalkyl-carboxamide, thiocarboxamide and N-substituted-carboximidamide derivatives” (Bayer Cropscience SA, priority 2006, dated 2010).

Assay: log P by HPLC on reversed-phase column (C18), EEC Directive 79/831 Annex V.A8
Type: physicochemical
Details: C18, 40° C., 0.1% aqueous formic acid and acetonitrile, gradient 10% to 90% acetonitrile; for chromatographic logP: reversed-phase HPLC column (C18)
Description: Temperature: 40° C.; Mobile phases: 0.1% aqueous formic acid and acetonitrile; linear gradient from 10% acetonitrile to 90% acetonitrile.

Row | SMILES | logP | chromatographic logP
1 | O=C(c1ccsc1I)N(Cc1ccc(Cl)nc1)C1CC1 [Example 66] | 2.67 | 
2 | Cc1cc(C(=O)N(Cc2c(Cl)cncc2Cl)C2CC2)nn1C [Example 107] | 2 | 
3 | Cc1cc(C(=O)N(Cc2ccc(Cl)cn2)C2CC2)c(C(F)(F)F)o1 [Example 50] | 3.36 | 
4 | Cn1cc(C(=O)N(Cc2ncc(Cl)cc2Cl)C2CC2)c(C(F)(F)F)n1 [Example 21] | 3.21 | 
5 | Cn1cc(C(=O)N(Cc2ccc(Cl)cn2)C2CC2)c(C(F)(F)F)n1 [Example 48] | 2.39 | 
6 | O=C(c1ccsc1I)N(Cc1c(Cl)cncc1Cl)C1CC1 [Example 97] | 3.21 | 
7 | Cc1cc(C(=O)N(C2CC2)C(C)c2cccnc2Cl)nn1C (racemic) [Example 84] | 1.78 | 
8 | Cc1ccc(CN(C(=O)c2cn(C)nc2C(F)F)C2CC2)cn1 [Example 8] | 0.52 | 
9 | Cc1ccoc1C(=O)N(C1CC1)C(C)c1cnccn1 (centres unmarked) [Example 41] | 2.04 | 
10 | Cc1cc(C(=O)N(Cc2c(Cl)cncc2Cl)C2CC2)no1 [Example 106] | 2.4 | 
11 | COc1nn(C)cc1C(=O)N(Cc1ncc(Cl)cc1Cl)C1CC1 [Example 34] | 2.21 | 
12 | Cc1nc(C(F)(F)F)ccc1CN(C(=O)c1cn(C)nc1C(F)F)C1CC1 [Example 87] | 2.51 | 
13 | CCC(c1ccncc1)N(C(=O)c1c(C)nn(C)c1F)C1CC1 (centres unmarked) [Example 17, N-cyclopropyl-N-[1-pyridin-4-yl-propyl]-5-fluoro-1,3-dimethyl-1H-pyrazole-4-carboxamide] |  | 0.92
14 | Cc1cc(C(=O)N(C2CC2)C(C)c2cnccn2)nn1C (centres unmarked) [Example 46] | 1.45 | 
15 | COc1ccc(CN(C(=O)c2cn(C)nc2C(F)F)C2CC2)cn1 [Example 61] | 1.8 | 
16 | Cn1nc(C(=O)N(Cc2ccncc2)C2CC2)c(C(F)(F)F)n1 [Example 15] | 1.03 | 
17 | Cc1cc(C(=O)N(C2CC2)C(C)c2cnccn2)no1 (centres unmarked) [Example 45] | 1.65 | 
18 | Cn1cc(C(=O)N(Cc2ccc(Cl)nc2)C2CC2)c(C(F)(F)F)n1 [Example 65] | 2.02 | 
19 | COc1ccnc(CN(C(=O)c2ccsc2I)C2CC2)c1OC [Example 109] | 1.47 | 
20 | Cc1nn(C)cc1C(=O)N(C1CC1)C(C)c1ncc(Cl)cc1Cl (centres unmarked) [Example 27] | 2.4 | 
21 | COc1ccc(CN(C(=O)c2ocnc2C)C2CC2)cn1 [Example 62] | 1.72 | 
22 | Cn1cc(C(=S)N(Cc2c(Cl)cncc2Cl)C2CC2)c(C(F)F)n1 [Example 104] | 2.93 | 
23 | Cc1nn(C)cc1C(=O)N(C1CC1)C(C)c1cnccn1 (centres unmarked) [Example 40] | 1.25 | 
24 | CC(c1cnccn1)N(C(=O)c1ccsc1I)C1CC1 (centres unmarked) [Example 37] | 2.38 | 
25 | CCOc1nn(C)cc1C(=O)N(Cc1ncc(Cl)cc1Cl)C1CC1 [Example 22] | 2.54 | 
26 | Cn1cc(C(=O)N(Cc2ccc(Oc3ccccc3)nc2)C2CC2)c(C(F)F)n1 [Example 36] | 2.61 | 
27 | Cc1nn(C)c(F)c1C(=O)N(Cc1ncc(Cl)cc1Cl)C1CC1 [Example 29] | 2.56 | 

Row | SMILES | logP | chromatographic logP
28 | Cn1cc(C(=O)N(Cc2ccncc2)C2CC2)c(C(F)(F)F)c1 [Example 16] | 0.99 | 
29 | CC(c1cnccn1)N(C(=S)c1cn(C)nc1C(F)F)C1CC1 (centres unmarked) [Example 43] | 2.05 | 
30 | COc1ccc(CN(C(=O)c2nc(C)oc2C)C2CC2)cn1 [Example 57] | 1.89 | 
31 | Cc1nn(C)c(F)c1C(=S)N(C1CC1)C(C)c1ncc(Cl)cc1Cl (centres unmarked) [Example 30] | 3.9 | 
32 | Cc1nn(C)c(F)c1C(=O)N(C1CC1)C(C)c1cnc(Cl)c(Cl)c1 (centres unmarked) [Example 4] | 2.56 | 
33 | Cn1cc(C(=O)N(Cc2ccc(Cl)nc2)C2CC2)c(C(F)F)n1 [Example 72] | 1.97 | 
34 | Cc1nc(C(F)(F)F)c(C(=O)N(Cc2ccc(Cl)cn2)C2CC2)s1 [Example 51] | 2.93 | 
35 | COc1ccnc(CN(C(=O)c2c(C)nn(C)c2F)C2CC2)c1OC [Example 113, N-cyclopropyl-N-[(3,4-dimethoxypyridin-2-yl)methyl]-5-fluoro-1,3-dimethyl-1H-pyrazole-4-carboxamide] |  | 1.65
36 | Cc1nc(C(F)F)c(C(=O)N(C2CC2)C(C)c2ncc(Cl)cc2Cl)s1 (centres unmarked) [Example 20] | 3.64 | 
37 | CC(c1cnc(Cl)c(Cl)c1)N(C(=O)c1cn(C)cc1C(F)(F)F)C1CC1 (centres unmarked) [Example 2] | 3.34 | 
38 | COc1ccnc(CN(C(=O)c2cn(C)nc2OC)C2CC2)c1OC [Example 115] | 0.56 | 
39 | CC(c1cccnc1Cl)N(C(=O)c1cn(C)nc1C(F)F)C1CC1 (racemic) [Example 81] | 1.88 | 
40 | COc1ccc(CN(C(=O)c2occc2C)C2CC2)cn1 [Example 59] | 2.46 | 
41 | CC(c1cnc(Cl)c(Cl)c1)N(C(=O)c1cn(C)nc1C(F)(F)F)C1CC1 (centres unmarked) [Example 1] | 3.14 | 
42 | CC(c1cnc(Cl)c(Cl)c1)N(C(=O)c1cn(C)nc1C(F)F)C1CC1 (centres unmarked) [Example 5] | 2.67 | 
43 | CC(c1ncc(Cl)cc1Cl)N(C(=O)c1cn(C)nc1C(F)F)C1CC1 (centres unmarked) [Example 31] | 3.01 | 
44 | CC(c1cnccn1)N(C(=O)c1cn(C)nc1C(F)F)C1CC1 (centres unmarked) [Example 42] | 1.47 | 
45 | COc1ccc(CN(C(=O)c2cc(C)n(C)n2)C2CC2)cn1 [Example 64] | 1.74 | 
46 | O=C(c1sccc1I)N(Cc1ccc(Cl)cn1)C1CC1 [Example 53] | 3.17 | 
47 | COc1ccnc(CN(C(=O)c2cn(C)nc2C(F)F)C2CC2)c1OC [Example 114] | 1.05 | 
48 | CC(c1cnccn1)N(C(=O)c1ccco1)C1CC1 (centres unmarked) [Example 38] | 1.62 | 
49 | Cc1nn(C)cc1C(=O)N(Cc1c(Cl)cncc1Cl)C1CC1 [Example 100] | 1.8 | 
50 | Cn1cc(C(=S)N(Cc2ccc(Cl)nc2)C2CC2)c(C(F)F)n1 [Example 73] | 2.58 | 
51 | Cc1ccc(CN(C(=O)c2c(C)nn(C)c2F)C2CC2)cn1 [Example 7] | 0.43 | 
52 | CCOc1nn(C)cc1C(=O)N(Cc1ccc(Cl)cn1)C1CC1 [Example 49] | 1.98 | 
53 | Cc1nn(C)c(F)c1C(=O)N(C1CC1)C(C)c1ncc(Cl)cc1Cl (centres unmarked) [Example 28] | 2.77 | 
